Measured values published in ChEMBL document CHEMBL4765323, “Design, synthesis, and biological evaluation of novel miconazole analogues containing selenium as potent antifungal agents” (Eur J Med Chem, 2020).
≈ marks a conversion by molar mass, not a printed value.

Tests used:
Candida albicans [1] = assay: Antifungal activity against Candida albicans CPCC400616 measured after 24 hrs by micro-broth dilution assay; assay type: functional
Candida albicans [2] = assay: Antifungal activity against Candida albicans ATCC SC5314 measured after 24 hrs by micro-broth dilution assay; assay type: functional
[Candida] zeylanoides = Antifungal activity against Candida zeylanoides CMGCC2.3739 measured after 24 hrs by micro-broth dilution assay; assay type: functional; conditions: Dujonia zeylanoides
Cryptococcus neoformans = assay: Antifungal activity against Cryptococcus neoformans CGMCC2.3161 measured after 72 hrs by micro-broth dilution assay; assay type: functional
Pichia kudriavzevii = assay: Antifungal activity against Candida krusei AS 2.1045 measured after 24 hrs by micro-broth dilution assay; assay type: functional
Nakaseomyces glabratus = assay: Antifungal activity against clinical isolate Candida glabrata measured after 24 hrs by micro-broth dilution assay; assay type: functional
Candida parapsilosis = assay: Antifungal activity against Candida parapsilosis ATCC 22019 measured after 24 hrs by micro-broth dilution assay; assay type: functional; conditions: Lodderomyces parapsilosis
Aspergillus fumigatus = assay: Antifungal activity against Aspergillus fumigatus CGMCC 3.7795 measured after 72 hrs by micro-broth dilution assay; assay type: functional
Candida albicans [3] = assay: Antifungal activity against fluconazole-resistant Candida albicans CaR measured after 24 hrs by micro-broth dilution assay; assay type: functional
Candida albicans [4] = assay: Antifungal activity against fluconazole-resistant Candida albicans 17 measured after 24 hrs by micro-broth dilution assay; assay type: functional
Candida albicans [5] = assay: Antifungal activity against fluconazole-resistant Candida albicans 632 measured after 24 hrs by micro-broth dilution assay; assay type: functional
Candida albicans [6] = assay: Antifungal activity against Candida albicans 901 measured after 24 hrs by micro-broth dilution assay; assay type: functional
Candida albicans [7] = assay: Antifungal activity against fluconazole-resistant Candida albicans strain 904 measured after 24 hrs by micro-broth dilution assay; assay type: functional
Candida albicans [8] = assay: Fungicidal activity against Candida albicans CPCC400616 measured after 48 hrs; assay type: functional
[9] = Ratio of MFC for fungicidal activity against Candida albicans CPCC400616 to MIC for Antifungal activity against Candida albicans CPCC400616; assay type: functional; conditions: time 24 hrs
[10] = Ratio of hemolysis activity in rabbit RBC to MIC for Candida albicans; assay type: toxicity; conditions: rabbit red blood cells (RBC)

Row | Compound | MIC (Candida albicans [1]) [µg/mL] | MIC (Candida albicans [2]) [µg/mL] | MIC ([Candida] zeylanoides) [µg/mL] | MIC (Cryptococcus neoformans) [µg/mL] | MIC (Pichia kudriavzevii) [µg/mL] | MIC (Nakaseomyces glabratus) [µg/mL] | MIC (Candida parapsilosis) [µg/mL] | MIC (Aspergillus fumigatus) [µg/mL] | MIC (Candida albicans [3]) [µg/mL] | MIC (Candida albicans [4]) [µg/mL] | MIC (Candida albicans [5]) [µg/mL] | MIC (Candida albicans [6]) [µg/mL] | MIC (Candida albicans [7]) [µg/mL] | MIC (Candida albicans [8]) [µg/mL] | MFC/MIC ratio [9] | selectivity ratio [10]
1 | Fc1ccc(C(Cn2ccnc2)[Se]Cc2ccccc2Br)c(F)c1 (configuration not stated) | 0.02 (≈ 0.0438 µM) | 0.01 (≈ 0.0219 µM) | 0.25 (≈ 0.548 µM) | 0.25 (≈ 0.548 µM) | 0.06 (≈ 0.132 µM) | 1 (≈ 2.19 µM) | 0.02 (≈ 0.0438 µM) | 1 (≈ 2.19 µM) | 0.13 (≈ 0.285 µM) | 0.06 (≈ 0.132 µM) | 0.25 (≈ 0.548 µM) | 0.25 (≈ 0.548 µM) | 0.06 (≈ 0.132 µM) | 0.125 (≈ 0.274 µM) | 8 | 512
2 | Fc1cccc(C[Se]C(Cn2ccnc2)c2ccc(F)cc2F)c1 (configuration not stated) | 0.03 (≈ 0.0759 µM) | 0.03 (≈ 0.0759 µM) | 1 (≈ 2.53 µM) | 0.5 (≈ 1.26 µM) | 0.13 (≈ 0.329 µM) | 0.5 (≈ 1.26 µM) | 0.25 (≈ 0.632 µM) | 2 (≈ 5.06 µM) | 4 (≈ 10.1 µM) | 0.06 (≈ 0.152 µM) | 8 (≈ 20.2 µM) | 8 (≈ 20.2 µM) | 1 (≈ 2.53 µM) | > 128 | – | –
3 | Fc1ccc(C(Cn2ccnc2)[Se]Cc2ccc(Cl)cc2Cl)c(F)c1 (configuration not stated) | 0.03 (≈ 0.0672 µM) | 0.13 (≈ 0.291 µM) | 0.5 (≈ 1.12 µM) | 0.25 (≈ 0.56 µM) | 0.06 (≈ 0.134 µM) | 1 (≈ 2.24 µM) | 0.03 (≈ 0.0672 µM) | 0.5 (≈ 1.12 µM) | 16 (≈ 35.9 µM) | 1 (≈ 2.24 µM) | 2 (≈ 4.48 µM) | 0.5 (≈ 1.12 µM) | 2 (≈ 4.48 µM) | 0.125 (≈ 0.28 µM) | 4 | 64
4 | COc1cc(C[Se]C(Cn2ccnc2)c2ccc(F)cc2F)cc(OC)c1 (configuration not stated) | 0.5 (≈ 1.14 µM) | 0.13 (≈ 0.297 µM) | 1 (≈ 2.29 µM) | 8 (≈ 18.3 µM) | 8 (≈ 18.3 µM) | 0.5 (≈ 1.14 µM) | 8 (≈ 18.3 µM) | 8 (≈ 18.3 µM) | 128 (≈ 293 µM) | 8 (≈ 18.3 µM) | 8 (≈ 18.3 µM) | 2 (≈ 4.57 µM) | 4 (≈ 9.15 µM) | – | – | –
5 | Fc1cccc(C[Se]C(Cn2ccnc2)c2ccc(Cl)cc2Cl)c1 (configuration not stated) | 0.03 (≈ 0.0701 µM) | 0.03 (≈ 0.0701 µM) | 1 (≈ 2.34 µM) | 0.25 (≈ 0.584 µM) | 2 (≈ 4.67 µM) | 0.5 (≈ 1.17 µM) | 0.02 (≈ 0.0467 µM) | 2 (≈ 4.67 µM) | 1 (≈ 2.34 µM) | 0.5 (≈ 1.17 µM) | 1 (≈ 2.34 µM) | 0.25 (≈ 0.584 µM) | 0.25 (≈ 0.584 µM) | – | – | –
6 | Clc1ccc(C[Se]C(Cn2ccnc2)c2ccc(Cl)cc2Cl)c(Cl)c1 (configuration not stated) | 0.06 (≈ 0.125 µM) | 0.06 (≈ 0.125 µM) | 2 (≈ 4.17 µM) | 0.5 (≈ 1.04 µM) | 2 (≈ 4.17 µM) | 0.25 (≈ 0.522 µM) | 2 (≈ 4.17 µM) | 0.5 (≈ 1.04 µM) | 128 (≈ 267 µM) | 16 (≈ 33.4 µM) | 64 (≈ 134 µM) | 32 (≈ 66.8 µM) | 8 (≈ 16.7 µM) | – | – | –
7 | Clc1ccc(C(Cn2ccnc2)[Se]Cc2ccccc2Br)c(Cl)c1 (configuration not stated) | 0.02 (≈ 0.0409 µM) | 0.01 (≈ 0.0204 µM) | 0.25 (≈ 0.511 µM) | 0.5 (≈ 1.02 µM) | 0.25 (≈ 0.511 µM) | 0.5 (≈ 1.02 µM) | 0.03 (≈ 0.0613 µM) | 1 (≈ 2.04 µM) | 0.5 (≈ 1.02 µM) | 0.5 (≈ 1.02 µM) | 1 (≈ 2.04 µM) | 1 (≈ 2.04 µM) | 0.25 (≈ 0.511 µM) | 0.25 (≈ 0.511 µM) | 16 | –
8 | Cc1ccc(C[Se]C(Cn2ccnc2)c2ccc(Cl)cc2Cl)cc1C (configuration not stated) | 0.25 (≈ 0.57 µM) | 4 (≈ 9.13 µM) | 128 (≈ 292 µM) | 0.5 (≈ 1.14 µM) | 128 (≈ 292 µM) | 0.5 (≈ 1.14 µM) | > 128 | 4 (≈ 9.13 µM) | 128 (≈ 292 µM) | 8 (≈ 18.3 µM) | 16 (≈ 36.5 µM) | 32 (≈ 73 µM) | 128 (≈ 292 µM) | – | – | –
9 | Clc1ccc(C(Cn2ccnc2)[Se]Cc2ccccc2)c(Cl)c1 (configuration not stated) | 0.06 (≈ 0.146 µM) | 0.02 (≈ 0.0488 µM) | 0.5 (≈ 1.22 µM) | 0.5 (≈ 1.22 µM) | 0.5 (≈ 1.22 µM) | 0.5 (≈ 1.22 µM) | 0.25 (≈ 0.609 µM) | 0.5 (≈ 1.22 µM) | 4 (≈ 9.75 µM) | 4 (≈ 9.75 µM) | 2 (≈ 4.88 µM) | 1 (≈ 2.44 µM) | 0.5 (≈ 1.22 µM) | – | – | –
10 | COc1ccc(C[Se]C(Cn2ccnc2)c2ccc(Cl)cc2Cl)cc1 (configuration not stated) | 0.13 (≈ 0.295 µM) | 0.13 (≈ 0.295 µM) | 8 (≈ 18.2 µM) | 0.25 (≈ 0.568 µM) | 8 (≈ 18.2 µM) | 0.5 (≈ 1.14 µM) | 0.5 (≈ 1.14 µM) | 1 (≈ 2.27 µM) | 32 (≈ 72.7 µM) | 16 (≈ 36.3 µM) | 128 (≈ 291 µM) | 16 (≈ 36.3 µM) | 128 (≈ 291 µM) | – | – | –
11 | Clc1ccc(C[Se]C(Cn2ccnc2)c2ccc(Cl)cc2Cl)cc1 (configuration not stated) | 0.06 (≈ 0.135 µM) | 0.03 (≈ 0.0675 µM) | 8 (≈ 18 µM) | 0.25 (≈ 0.562 µM) | 0.5 (≈ 1.12 µM) | 1 (≈ 2.25 µM) | 0.5 (≈ 1.12 µM) | 2 (≈ 4.5 µM) | 16 (≈ 36 µM) | 8 (≈ 18 µM) | 64 (≈ 144 µM) | 8 (≈ 18 µM) | > 128 | – | – | –
